From PubChem BioAssay (NCI)
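Values below derive from 48-hour exposures of cells grown in 96-well plates, with endpoints linearly interpolated between the two concentrations bracketing the appropriate inhibition level. The concentration for 50% growth inhibition is given as GI50. TGI: concentration producing complete growth inhibition.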

Tests used:
Experiment in all cases: inhibition of tumour cell growth, NCI panel, 48 h
786-0 renal = test system: 786-0 renal
SN12C renal = test system: SN12C renal
HCT-116 colon = test system: HCT-116 colon
RPMI-8226 leukemia = test system: RPMI-8226 leukemia
DMS 114 small cell lung = test system: DMS 114 small cell lung
SNB-78 CNS = test system: SNB-78 CNS
U251 CNS = test system: U251 CNS
SR leukemia = test system: SR leukemia
PC-3 prostate = test system: PC-3 prostate
MDA-MB-435 = test system: MDA-MB-435

SMILES: CC1(c2cccc3ccccc23)OC(=O)c2ccccc21 (stereo unspecified)
- TGI (786-0 renal): 71.3 µM
- TGI (SN12C renal): 67.8 µM
- TGI (HCT-116 colon): 34.6 µM
- TGI (RPMI-8226 leukemia): 77.6 µM
- TGI (DMS 114 small cell lung): 38 µM
- TGI (SNB-78 CNS): > 100 µM
- TGI (U251 CNS): 45.7 µM

SMILES: O=C(CO)CC(=O)C(=O)Nc1ccccc1
- TGI (786-0 renal): > 100 µM
- TGI (SN12C renal): > 100 µM
- TGI (HCT-116 colon): > 100 µM
- TGI (SR leukemia): > 100 µM
- TGI (DMS 114 small cell lung): > 100 µM
- TGI (SNB-78 CNS): > 100 µM
- TGI (U251 CNS): > 100 µM

SMILES: CCOc1ccccc1NC(=O)CC1SC(=Nc2ccc([N+](=O)[O-])cc2)NC1=O (stereo unspecified)
- TGI (786-0 renal): 33.5 µM
- TGI (SN12C renal): 53.9 µM
- TGI (HCT-116 colon): 29.3 µM
- TGI (RPMI-8226 leukemia): 28.9 µM
- TGI (DMS 114 small cell lung): 32 µM
- TGI (SNB-78 CNS): > 100 µM
- TGI (U251 CNS): 28 µM

SMILES: O=C1NC(=O)C2C(=O)NC(=O)C1C2(c1ccccc1)c1cc[nH]c1 (stereo unspecified)
- TGI (786-0 renal): > 100 µM
- TGI (SN12C renal): > 100 µM
- TGI (RPMI-8226 leukemia): > 100 µM
- TGI (DMS 114 small cell lung): > 100 µM
- TGI (SNB-78 CNS): > 100 µM

SMILES: N#CC(C(=O)/C(=N/N)C(C#N)c1ccccc1)c1ccccc1 (stereo unspecified)
- TGI (786-0 renal): > 100 µM
- TGI (SN12C renal): > 100 µM
- TGI (HCT-116 colon): > 100 µM
- TGI (RPMI-8226 leukemia): > 100 µM
- TGI (DMS 114 small cell lung): > 100 µM
- TGI (SNB-78 CNS): > 100 µM
- TGI (U251 CNS): > 100 µM

SMILES: O=C1/C(=C/c2ccccc2)CN(C(=O)c2cccnc2)C/C1=C\c1ccccc1
- GI50 (786-0 renal): 2.07 µM
- TGI (786-0 renal): 4.57 µM
- GI50 (SN12C renal): 2.39 µM
- TGI (SN12C renal): 7.96 µM
- GI50 (HCT-116 colon): 0.319 µM
- TGI (HCT-116 colon): 0.88 µM
- GI50 (SR leukemia): 0.311 µM
- TGI (SR leukemia): 1.35 µM
- GI50 (RPMI-8226 leukemia): 0.318 µM
- TGI (RPMI-8226 leukemia): 1.44 µM
- GI50 (U251 CNS): 0.435 µM
- TGI (U251 CNS): 2.41 µM
- GI50 (PC-3 prostate): 1.44 µM
- TGI (PC-3 prostate): 4.81 µM
- GI50 (MDA-MB-435): 0.483 µM
- TGI (MDA-MB-435): 2.15 µM

SMILES: N[C@@H]1CCCC[C@H]1N.O=C([O-])C(=O)[O-].[Pt+4]
- GI50 (786-0 renal): 0.752 µM
- TGI (786-0 renal): 42.9 µM
- GI50 (SN12C renal): 2.56 µM
- TGI (SN12C renal): > 100 µM
- GI50 (HCT-116 colon): 0.378 µM
- TGI (HCT-116 colon): > 100 µM
- GI50 (RPMI-8226 leukemia): 0.0528 µM
- TGI (RPMI-8226 leukemia): > 91.2 µM
- GI50 (SNB-78 CNS): 19.8 µM
- TGI (SNB-78 CNS): > 100 µM
- GI50 (U251 CNS): 1.83 µM
- TGI (U251 CNS): 27.1 µM
- GI50 (PC-3 prostate): 17.9 µM
- TGI (PC-3 prostate): > 100 µM
- GI50 (MDA-MB-435): 0.577 µM
- TGI (MDA-MB-435): 18.6 µM

SMILES: O=C(CN1CCN(CCCOc2c(-c3ccccc3)oc3ccccc3c2=O)CC1)Nc1ccc(Cl)cc1C(=O)c1ccccc1Cl
- GI50 (786-0 renal): 5.58 µM
- TGI (786-0 renal): 19.4 µM
- GI50 (SN12C renal): 4.98 µM
- TGI (SN12C renal): 18 µM
- GI50 (HCT-116 colon): 4.44 µM
- TGI (HCT-116 colon): 16.6 µM
- GI50 (SR leukemia): 3.14 µM
- TGI (SR leukemia): 8.17 µM
- GI50 (RPMI-8226 leukemia): 2.59 µM
- TGI (RPMI-8226 leukemia): 7.14 µM
- GI50 (U251 CNS): 5.86 µM
- TGI (U251 CNS): 19.1 µM
- GI50 (PC-3 prostate): 3.18 µM
- TGI (PC-3 prostate): 21.4 µM
- GI50 (MDA-MB-435): 4.13 µM
- TGI (MDA-MB-435): 17 µM

SMILES: N/C(=C\c1ccc(OCc2ccccc2)c(OCc2ccccc2)c1[N+](=O)[O-])C(=O)O
- TGI (786-0 renal): > 100 µM
- TGI (SN12C renal): > 100 µM
- TGI (HCT-116 colon): > 100 µM
- TGI (SR leukemia): > 100 µM
- TGI (RPMI-8226 leukemia): > 100 µM
- TGI (SNB-78 CNS): > 100 µM
- TGI (U251 CNS): > 100 µM

SMILES: CCC1(c2c(F)c(F)c(N)c(F)c2F)CCC(=O)NC1=O (stereo unspecified)
- TGI (786-0 renal): > 100 µM
- TGI (HCT-116 colon): > 100 µM
- TGI (SR leukemia): > 100 µM
- TGI (RPMI-8226 leukemia): > 100 µM
- TGI (DMS 114 small cell lung): > 100 µM
- TGI (SNB-78 CNS): > 100 µM
- TGI (U251 CNS): > 100 µM

SMILES: CC1(C)N=C(N)N=C(N)N1c1ccc(OCCCCOc2ccc(S(=O)(=O)F)cc2)c(Cl)c1
- GI50 (786-0 renal): 0.355 µM
- TGI (786-0 renal): 18.9 µM
- GI50 (SN12C renal): 0.0575 µM
- TGI (SN12C renal): 15.2 µM
- GI50 (HCT-116 colon): 0.0463 µM
- TGI (HCT-116 colon): 16.7 µM
- GI50 (SR leukemia): 0.0445 µM
- TGI (SR leukemia): 26.9 µM
- GI50 (RPMI-8226 leukemia): 0.116 µM
- TGI (RPMI-8226 leukemia): 12 µM
- GI50 (U251 CNS): 0.0506 µM
- TGI (U251 CNS): 13.6 µM
- GI50 (PC-3 prostate): 0.064 µM
- TGI (PC-3 prostate): 11 µM
- GI50 (MDA-MB-435): 0.0604 µM
- TGI (MDA-MB-435): 16.3 µM
